The numbers were not newly measured in US4795645A, “Sustained release tablets of theophylline” (Yissum Research and Development, priority 1986, dated 1989), which cites them from elsewhere.

For the data set the following is noted: from oral solutions and plain uncoated tablets.

For the molecule `Cn1c(=O)c2[nH]cnc2n(C)c1=O` [Theophylline, theophylline], the absorption result was “rapidly, consistently and completely absorbed”.
